From patent EP0725790B1, “SUBSTITUTED TETRA- AND PENTAPEPTIDE INHIBITORS OF PROTEIN:FARNESYL TRANSFERASE” (PARKE DAVIS & COMPANY, priority 1993, dated 1995)
Non-standard residues stand in square brackets, D forms with d. Residues, ends and D or L forms follow the SMILES beside them. *: point of attachment. pY = N[C@@H](Cc1ccc(OP(=O)(O)O)cc1)C(=O)O; Cbz = O=C(OCc1ccccc1)*; Bn = c1ccc(C*)cc1; NHNH2 = NN*

Biological target: T1, rat brain farnesyl protein transferase (Rattus norvegicus, UniProt Q02293+Q04631)
T1 construct: 40-fold purified rat brain farnesyl protein transferase; from tissue; host or cells: rat brain
Experiment: PFT inhibitory activity assay (radiolabeled farnesyl pyrophosphate, biotinylated peptide substrate, streptavidin beads)
Format: biochemical
Conditions: 40-fold purified enzyme; 30 mM potassium phosphate buffer, pH 7.4; 37°C for 30 minutes; farnesyl pyrophosphate 0.12 µM, (biotinyl)-Ahe-Tyr-Lys-Cys-Val-Ile-Met 0.1 µM
Procedure: The PFT inhibitory activity of compounds of Formula I was assayed in 30 mM potassium phosphate buffer, pH 7.4, containing 7 mM DTT, 1.2 mM MgCl2, 0.1 mM leupeptin, 0.1 mM pepstatin, and 0.2 mM phenylmethylsulfonyl fluoride. Assays were performed in 96 well plates (Wallec) and employed solutions composed of varying concentrations of a compound of Formula I in 100% DMSO. Upon addition of both substrates, radiolabeled farnesyl pyrophosphate ([1-^3H], specific activity 15-30 Ci/mmol, final concentration 0.12 µM) and (biotinyl)-Ahe-Tyr-Lys-Cys-Val-Ile-Met peptide (final concentration 0.1 µM), the enzyme reaction was started by addition of 40-fold purified rat brain farnesyl protein transferase. After incubation at 37°C for 30 minutes, the reaction was terminated by diluting the reaction 2.5-fold with a stop buffer containing 1.5 M magnesium acetate, 0.2 M H3PO4, 0.5% BSA, and strepavidin beads (Amersham) at a concentration of 1.3 mg/mL. After allowing the plate to settle for 30 minutes at room temperature, radioactivity was quantitated on a microBeta counter (model 1450, Wallec).

Row | SMILES | IC50
1 | COC(=O)[C@H](Cc1c[nH]c2ccccc12)NC(=O)[C@H](COCc1ccccc1)NC(=O)[C@H](Cc1ccc(OCc2ccccc2)cc1)NC(=O)[C@H](Cc1c[nH]cn1)NC(=O)OCc1ccccc1 [Cbz-His-Tyr(OBn)-Ser(OBn)-Trp- OMe, N-[N-[N-[N-[(Phenylmethoxy)carbonyl]-L-histidyl]-O-(phenylmethyl)-L-tyrosyl]-O-(phenylmethyl)-L-seryl]-L-tryptophan, methyl ester] (Cbz-HY(Bn)S(Bn)W-OMe) | 115 nM
2 | C[C@@H](NC(=O)[C@H](Cc1c[nH]c2ccccc12)NC(=O)[C@H](COCc1ccccc1)NC(=O)[C@H](Cc1ccc(OCc2ccccc2)cc1)NC(=O)[C@H](Cc1c[nH]cn1)NC(=O)OCc1ccccc1)C(=O)NN [Cbz-His-Tyr(OBn)-Ser(OBn)-Trp-D-Ala- NHNH2] (Cbz-HY(Bn)S(Bn)W[dA]-NHNH2) | 62 nM
3 | C[C@@H](NC(=O)[C@H](Cc1c[nH]c2ccccc12)NC(=O)[C@H](COCc1ccccc1)NC(=O)[C@H](Cc1ccc(OP(=O)(O)O)cc1)NC(=O)[C@H](Cc1c[nH]cn1)NC(=O)OCc1ccccc1)C(N)=O [Cbz-His-Tyr(OPO3H2)-Ser(OBn)-Trp-DAla- NH2] (Cbz-H[pY]S(Bn)W[dA]-NH2) | 9 nM
4 | C[C@H](NC(=O)[C@H](COCc1ccccc1)NC(=O)[C@H](Cc1ccc(OCc2ccccc2)cc1)NC(=O)[C@H](Cc1c[nH]cn1)NC(=O)OCc1ccccc1)C(=O)N[C@H](C)C(N)=O [Cbz-His-Tyr (OBn)-Ser(OBn)-Ala-DAla-NH2, Cbz-His-Tyr(OBn)-Ser(OBn)-Ala-D-Ala- NH2] (Cbz-HY(Bn)S(Bn)A[dA]-NH2) | 330 nM
5 | NC(=O)[C@H](Cc1c[nH]c2ccccc12)NC(=O)[C@H](COCc1ccccc1)NC(=O)[C@H](Cc1ccc(OCc2ccccc2)cc1)NC(=O)[C@H](Cc1c[nH]cn1)NC(=O)OCc1ccccc1 [Cbz-His-Tyr(OBn)-Ser(OBn)-Trp-NH2, Cbz-His-Tyr(OBn)-Ser(OBn)-Trp- NH2] (Cbz-HY(Bn)S(Bn)W-NH2) | 83 nM
6 | CCNC(=O)[C@@H](C)NC(=O)[C@H](Cc1c[nH]c2ccccc12)NC(=O)[C@H](COCc1ccccc1)NC(=O)[C@H](Cc1ccc(OCc2ccccc2)cc1)NC(=O)[C@H](Cc1c[nH]cn1)NC(=O)OCc1ccccc1 [Cbz-His-Tyr(OBn)-Ser(OBn)-Trp-DAla- NHEt, Cbz-His-Tyr(OBn)-Ser(OBn)-Trp-D-Ala- NHEt] (Cbz-HY(Bn)S(Bn)W[dA]-NHEt) | 230 nM
7 | C[C@@H](NC(=O)[C@H](Cc1c[nH]c2ccccc12)NC(=O)[C@H](CO)NC(=O)[C@H](Cc1ccc(OCc2ccccc2)cc1)NC(=O)[C@H](Cc1c[nH]cn1)NC(=O)OCc1ccccc1)C(N)=O [Cbz-His-Tyr(OBn)-Ser-Trp-DAla-NH2, Cbz-His-Tyr(OBn)-Ser-Trp-D-Ala- NH2] (Cbz-HY(Bn)SW[dA]-NH2) | 1800 nM
8 | C[C@@H](NC(=O)[C@H](Cc1c[nH]c2ccccc12)NC(=O)[C@H](COCc1ccccc1)NC(=O)[C@H](Cc1ccc(OCc2ccccc2)cc1)NC(=O)[C@@H](Cc1c[nH]cn1)NC(=O)OCc1ccccc1)C(N)=O [Cbz-DHis-Tyr (OBn)-Ser(OBn)-Trp-DAla-NH2, Cbz-D-His-Tyr(OBn)-Ser(OBn)-Trp-D-Ala- NH2] (Cbz-[dH]Y(Bn)S(Bn)W[dA]-NH2) | 120 nM

Next, values leading:

Row | IC50 | SMILES
9 | 39 nM | C[C@@H](NC(=O)[C@H](Cc1c[nH]c2ccccc12)NC(=O)[C@H](COCc1ccccc1)NC(=O)[C@@H](Cc1ccc(OCc2ccccc2)cc1)NC(=O)[C@H](Cc1c[nH]cn1)NC(=O)OCc1ccccc1)C(N)=O [Cbz-His-DTyr(OBn)-Ser(OBn)-Trp-DAla-NH2, Cbz-His-D-Tyr(OBn)-Ser(OBn)-Trp-D-Ala- NH2] (Cbz-H[dY](Bn)S(Bn)W[dA]-NH2)
10 | 15 nM | C[C@H](NC(=O)[C@H](Cc1c[nH]c2ccccc12)NC(=O)[C@H](COCc1ccccc1)NC(=O)[C@H](Cc1ccc(OCc2ccccc2)cc1)NC(=O)[C@H](Cc1c[nH]cn1)NC(=O)OCc1ccccc1)C(N)=O [Cbz-His-Tyr(OBn)-Ser(OBn)-Trp-Ala-NH2, Cbz-His-Tyr(OBn)-Ser(OBn)-Trp-Ala- NH2] (Cbz-HY(Bn)S(Bn)WA-NH2)
11 | 40 nM | C[C@@H](NC(=O)[C@H](Cc1c[nH]c2ccccc12)NC(=O)[C@H](COCc1ccccc1)NC(=O)[C@H](Cc1ccc(O)cc1)NC(=O)[C@H](Cc1c[nH]cn1)NC(=O)OCc1ccccc1)C(N)=O [Cbz-His-Tyr-Ser(OBn)-Trp-DAla-NH2, Cbz-His-Tyr-Ser(OBn)-Trp-D-Ala- NH2] (Cbz-HYS(Bn)W[dA]-NH2)
12 | 17 nM | C[C@@H](NC(=O)[C@H](Cc1c[nH]c2ccccc12)NC(=O)[C@H](COCc1ccccc1)NC(=O)[C@H](Cc1ccc(OCc2ccccc2)cc1)NC(=O)[C@H](Cc1c[nH]cn1)NC(=O)OCc1ccccc1)C(N)=O [Cbz-His-Tyr(OBn)-Ser(OBn)-Trp-DAla- NH2, Nα-[N-[N-[N-[N-[(Phenylmethoxy)carbonyl]-L-histidyl]-O-(phenylmethyl)-L-tyrosyl]-O-(phenylmethyl)-L-seryl]-Ltryptophyl]-D-alaninamide] (Cbz-HY(Bn)S(Bn)W[dA]-NH2)
13 | 10 nM | C[C@@H](NC(=O)[C@H](Cc1c[nH]c2ccccc12)NC(=O)[C@H](COCc1ccccc1)NC(=O)[C@H](Cc1ccccc1)NC(=O)[C@H](Cc1c[nH]cn1)NC(=O)OCc1ccccc1)C(N)=O [Cbz-His-Phe-Ser(OBn)-Trp-DAla-NH2, Cbz-His-Phe-Ser(OBn)-Trp-D-Ala- NH2] (Cbz-HFS(Bn)W[dA]-NH2)
14 | 48 nM | C[C@@H](NC(=O)[C@H](Cc1c[nH]c2ccccc12)NC(=O)[C@H](COCc1ccccc1)NC(=O)[C@H](Cc1ccc(OCc2ccccc2)cc1)NC(=O)[C@H](Cc1c[nH]cn1)NC(=O)OCc1ccccc1)C(=O)O [Cbz-His-Tyr(OBn)-Ser(OBn)-Trp-DAla- OH, Cbz-His-Tyr(OBn)-Ser(OBn)-Trp-D-Ala] (Cbz-HY(Bn)S(Bn)W[dA]-OH)
15 | 19 nM | COC(=O)[C@@H](C)NC(=O)[C@H](Cc1c[nH]c2ccccc12)NC(=O)[C@H](COCc1ccccc1)NC(=O)[C@H](Cc1ccc(OCc2ccccc2)cc1)NC(=O)[C@H](Cc1c[nH]cn1)NC(=O)OCc1ccccc1 [Cbz-His-Tyr(OBn)-Ser(OBn)-Trp-DAla-OMe, Cbz-His-Tyr(OBn)-Ser(OBn)-Trp-D-Ala-OMe] (Cbz-HY(Bn)S(Bn)W[dA]-OMe)
16 | 4 nM | C[C@@H](NC(=O)[C@H](Cc1c[nH]c2ccccc12)NC(=O)[C@H](CS)NC(=O)[C@H](Cc1ccc(OCc2ccccc2)cc1)NC(=O)[C@H](Cc1c[nH]cn1)NC(=O)OCc1ccccc1)C(N)=O [Cbz-His-Tyr (OBn)-Cys-Trp-DAla-NH2] (Cbz-HY(Bn)CW[dA]-NH2)
